Square brackets hold non-standard residues; d marks the D form. Peptide text beside a SMILES is read from it. * marks the point of attachment. X8 = C[C@H](N)/C(F)=C/[C@@H](Cc1ccccc1)C(=O)*; X1 = CC(C)[C@H](/C=C(\Cl)[C@H](C)N)C(=O)*; X2 = CC(C)[C@H](/C=C(\F)[C@H](C)N)C(=O)*; X3 = C/C(=C\[C@H](C(=O)*)C(C)C)[C@H](C)N; NMeA = CN[C@@H](C)C(=O)O

The test system of test [1] is UMR106-06. The experiment in a line: Compound was evaluated for the accumulation of cyclic AMP in UMR10606 (rat osteosarcoma) cells. In kind it is functional, cell-based.
For test [2], the system named is SAOS-2. Put plainly: Compound was evaluated for the accumulation of cyclic AMP in SaOS-2 (human osteosarcoma) cells. It is filed as functional, cell-based.
For test [3], the system named is UMR106-06. The experiment in a line: Compound was evaluated for the intrinsic activity for accumulation of cyclic AMP in UMR10606 (rat osteosarcoma) cells. It is filed as functional.
The subject of test [4] is OK-1. The experiment in a line: Accumulation of cyclic AMP in OK-1 cells. It is filed as functional, cell-based, opossum.
The subject of test [5] is SAOS-2. Put plainly: Compound was evaluated for the intrinsic activity for accumulation of cyclic AMP in SaOS-2 (human osteosarcoma) cells. In kind it is functional.
For test [6], the system named is OK-1. Put plainly: Displacement of [125I]-chick PTHrP-(1-36)-NH2 from opossum (OK-1) kidney cells. In kind it is functional. On the technique in general: Displacement assays read how much labelled ligand stays bound in the presence of the test substance.
Test [7] relates to OK-1. Put plainly: Compound was evaluated for the intrinsic activity for accumulation of cyclic AMP in OK-1 cells. In kind it is functional, opossum.

As usually defined, the EC50 is the midpoint of the concentration-response curve. As a reminder, the pKD is the negative decadic logarithm of the KD, by convention in mol/L. Low readings indicate a high KD, high ones a low KD. As for `CC[C@H](C)[C@H](NC(=O)[C@H](CCC(=O)O)NC(=O)[C@H](CO)NC(=O)[C@@H](NC(=O)[C@H](C)NC)C(C)C)C(=O)N[C@@H](CCC(N)=O)C(=O)N[C@@H](CC(C)C)C(=O)N[C@@H](CCSC)C(=O)N[C@@H](Cc1c[nH]cn1)C(=O)N[C@@H](CC(N)=O)C(=O)N[C@@H](CC(C)C)C(=O)NCC(=O)N[C@@H](CCCCN)C(=O)N[C@@H](Cc1c[nH]cn1)C(=O)N[C@@H](CC(C)C)C(=O)N[C@@H](CC(N)=O)C(=O)N[C@@H](CO)C(=O)N[C@@H](CCSC)C(=O)N[C@@H](CCC(=O)O)C(=O)N[C@@H](CCCN=C(N)N)C(=O)N[C@H](C(=O)N[C@@H](CCC(=O)O)C(=O)N[C@@H](Cc1c[nH]c2ccccc12)C(=O)N[C@@H](CC(C)C)C(=O)N[C@@H](CCCN=C(N)N)C(=O)N[C@@H](CCCCN)C(=O)N[C@@H](CCCCN)C(=O)N[C@@H](CC(C)C)C(=O)N[C@@H](CCC(N)=O)C(=O)N[C@@H](CC(=O)O)C(=O)N[C@H](C(=O)N[C@@H](Cc1c[nH]cn1)C(=O)N[C@@H](CC(N)=O)C(=O)N[C@@H](Cc1ccccc1)C(=O)N[C@H](C(=O)N[C@@H](C)C(N)=O)C(C)C)C(C)C)C(C)C` (H-[NMeA]VSEIQLMHNLGKHLNSMERVEWLRKKLQDVHNFVA-NH2), the concentration for a half-maximal effect (EC50) worked out at 2.6 nM in the test on UMR106-06 [1] (Rattus norvegicus, UMR106-06); 1.6 nM with SAOS-2 [2] (Homo sapiens, SAOS-2); 7.4 nM in the test with OK-1 [4] (opossum, OK-1). Further, the values for the Intrinsic activity with UMR106-06 [3], in the test with SAOS-2 [5] and in the test on OK-1 [7] were 1, 1 and 0.9, respectively. Further, the pKD with OK-1 [6] was determined as 8.5.

`CC[C@H](C)[C@H](NC(=O)[C@H](CCC(=O)O)NC(=O)[C@H](CO)NC(=O)[C@@H](/C=C(\Cl)[C@H](C)N)C(C)C)C(=O)N[C@@H](CCC(N)=O)C(=O)N[C@@H](CC(C)C)C(=O)N[C@@H](CCSC)C(=O)N[C@@H](Cc1c[nH]cn1)C(=O)N[C@@H](CC(N)=O)C(=O)N[C@@H](CC(C)C)C(=O)NCC(=O)N[C@@H](CCCCN)C(=O)N[C@@H](Cc1c[nH]cn1)C(=O)N[C@@H](CC(C)C)C(=O)N[C@@H](CC(N)=O)C(=O)N[C@@H](CO)C(=O)N[C@@H](CCSC)C(=O)N[C@@H](CCC(=O)O)C(=O)N[C@@H](CCCN=C(N)N)C(=O)N[C@H](C(=O)N[C@@H](CCC(=O)O)C(=O)N[C@@H](Cc1c[nH]c2ccccc12)C(=O)N[C@@H](CC(C)C)C(=O)N[C@@H](CCCN=C(N)N)C(=O)N[C@@H](CCCCN)C(=O)N[C@@H](CCCCN)C(=O)N[C@@H](CC(C)C)C(=O)N[C@@H](CCC(N)=O)C(=O)N[C@@H](CC(=O)O)C(=O)N[C@H](C(=O)N[C@@H](Cc1c[nH]cn1)C(=O)N[C@@H](CC(N)=O)C(=O)N[C@@H](Cc1ccccc1)C(=O)N[C@H](C(=O)N[C@@H](C)C(N)=O)C(C)C)C(C)C)C(C)C` (X1-SEIQLMHNLGKHLNSMERVEWLRKKLQDVHNFVA-NH2): the EC50 amounted to 0.65 nM with UMR106-06 [1] (Rattus norvegicus, UMR106-06); 0.85 nM in the test with SAOS-2 [2] (Homo sapiens, SAOS-2); 7.9 nM in the test with OK-1 [4] (opossum, OK-1). For the same compound, the Intrinsic activity is 1 in the test on UMR106-06 [3], 1 in the test on SAOS-2 [5] and 1.1 with OK-1 [7]. The negative-log KD (pKD) in the test with OK-1 [6] turned out to be 8.9.

`CC[C@H](C)[C@H](NC(=O)[C@H](CCC(=O)O)NC(=O)[C@H](CO)NC(=O)[C@@H](/C=C(\F)[C@H](C)N)C(C)C)C(=O)N[C@@H](CCC(N)=O)C(=O)N[C@@H](CC(C)C)C(=O)N[C@@H](CCSC)C(=O)N[C@@H](Cc1c[nH]cn1)C(=O)N[C@@H](CC(N)=O)C(=O)N[C@@H](CC(C)C)C(=O)NCC(=O)N[C@@H](CCCCN)C(=O)N[C@@H](Cc1c[nH]cn1)C(=O)N[C@@H](CC(C)C)C(=O)N[C@@H](CC(N)=O)C(=O)N[C@@H](CO)C(=O)N[C@@H](CCSC)C(=O)N[C@@H](CCC(=O)O)C(=O)N[C@@H](CCCN=C(N)N)C(=O)N[C@H](C(=O)N[C@@H](CCC(=O)O)C(=O)N[C@@H](Cc1c[nH]c2ccccc12)C(=O)N[C@@H](CC(C)C)C(=O)N[C@@H](CCCN=C(N)N)C(=O)N[C@@H](CCCCN)C(=O)N[C@@H](CCCCN)C(=O)N[C@@H](CC(C)C)C(=O)N[C@@H](CCC(N)=O)C(=O)N[C@@H](CC(=O)O)C(=O)N[C@H](C(=O)N[C@@H](Cc1c[nH]cn1)C(=O)N[C@@H](CC(N)=O)C(=O)N[C@@H](Cc1ccccc1)C(=O)N[C@H](C(=O)N[C@@H](C)C(N)=O)C(C)C)C(C)C)C(C)C` (X2-SEIQLMHNLGKHLNSMERVEWLRKKLQDVHNFVA-NH2): the EC50 is 1.6 nM in the test with UMR106-06 [1] (Rattus norvegicus, UMR106-06); 1.5 nM in the test on SAOS-2 [2] (Homo sapiens, SAOS-2); 4.4 nM with OK-1 [4] (opossum, OK-1). For the same compound, the values for the Intrinsic activity in the test on UMR106-06 [3], in the test with SAOS-2 [5] and with OK-1 [7] were 1, 0.89 and 1, respectively. Besides, the pKD with OK-1 [6] is recorded as 8.9.

Regarding `CC[C@H](C)[C@H](NC(=O)[C@H](CCC(=O)O)NC(=O)[C@H](CO)NC(=O)[C@@H](/C=C(\C)[C@H](C)N)C(C)C)C(=O)N[C@@H](CCC(N)=O)C(=O)N[C@@H](CC(C)C)C(=O)N[C@@H](CCSC)C(=O)N[C@@H](Cc1c[nH]cn1)C(=O)N[C@@H](CC(N)=O)C(=O)N[C@@H](CC(C)C)C(=O)NCC(=O)N[C@@H](CCCCN)C(=O)N[C@@H](Cc1c[nH]cn1)C(=O)N[C@@H](CC(C)C)C(=O)N[C@@H](CC(N)=O)C(=O)N[C@@H](CO)C(=O)N[C@@H](CCSC)C(=O)N[C@@H](CCC(=O)O)C(=O)N[C@@H](CCCN=C(N)N)C(=O)N[C@H](C(=O)N[C@@H](CCC(=O)O)C(=O)N[C@@H](Cc1c[nH]c2ccccc12)C(=O)N[C@@H](CC(C)C)C(=O)N[C@@H](CCCN=C(N)N)C(=O)N[C@@H](CCCCN)C(=O)N[C@@H](CCCCN)C(=O)N[C@@H](CC(C)C)C(=O)N[C@@H](CCC(N)=O)C(=O)N[C@@H](CC(=O)O)C(=O)N[C@H](C(=O)N[C@@H](Cc1c[nH]cn1)C(=O)N[C@@H](CC(N)=O)C(=O)N[C@@H](Cc1ccccc1)C(=O)N[C@H](C(=O)N[C@@H](C)C(N)=O)C(C)C)C(C)C)C(C)C` (X3-SEIQLMHNLGKHLNSMERVEWLRKKLQDVHNFVA-NH2), the EC50 with UMR106-06 [1] (Rattus norvegicus, UMR106-06) was found to be 1.2 nM; with SAOS-2 [2] (Homo sapiens, SAOS-2), 1.1 nM; with OK-1 [4] (opossum, OK-1), 4.4 nM. For the same compound, the Intrinsic activity in the test on UMR106-06 [3], in the test with SAOS-2 [5] and in the test on OK-1 [7] was 1 each time. The compound further showed a negative-log KD (pKD) in the test on OK-1 [6] of 9.

Take `CC[C@H](C)[C@H](NC(=O)[C@H](CCC(=O)O)NC(=O)[C@H](CO)NC(=O)[C@@H](/C=C(\F)[C@H](C)N)Cc1ccccc1)C(=O)N[C@@H](CCC(N)=O)C(=O)N[C@@H](CC(C)C)C(=O)N[C@@H](CCSC)C(=O)N[C@@H](Cc1c[nH]cn1)C(=O)N[C@@H](CC(N)=O)C(=O)N[C@@H](CC(C)C)C(=O)NCC(=O)N[C@@H](CCCCN)C(=O)N[C@@H](Cc1c[nH]cn1)C(=O)N[C@@H](CC(C)C)C(=O)N[C@@H](CC(N)=O)C(=O)N[C@@H](CO)C(=O)N[C@@H](CCSC)C(=O)N[C@@H](CCC(=O)O)C(=O)N[C@@H](CCCN=C(N)N)C(=O)N[C@H](C(=O)N[C@@H](CCC(=O)O)C(=O)N[C@@H](Cc1c[nH]c2ccccc12)C(=O)N[C@@H](CC(C)C)C(=O)N[C@@H](CCCN=C(N)N)C(=O)N[C@@H](CCCCN)C(=O)N[C@@H](CCCCN)C(=O)N[C@@H](CC(C)C)C(=O)N[C@@H](CCC(N)=O)C(=O)N[C@@H](CC(=O)O)C(=O)N[C@H](C(=O)N[C@@H](Cc1c[nH]cn1)C(=O)N[C@@H](CC(N)=O)C(=O)N[C@@H](Cc1ccccc1)C(=O)N[C@H](C(=O)N[C@@H](C)C(N)=O)C(C)C)C(C)C)C(C)C` (X8-SEIQLMHNLGKHLNSMERVEWLRKKLQDVHNFVA-NH2): the EC50 with UMR106-06 [1] (Rattus norvegicus, UMR106-06) is 26 nM; in the test with OK-1 [4] (opossum, OK-1), more than 1000 nM. For the same compound, the Intrinsic activity in the test on UMR106-06 [3] is reported as 0.08; in the test with OK-1 [7], less than 0.1. Moreover, the pKD in the test on OK-1 [6] is on record as 8.6.

As for `CC[C@H](C)[C@H](NC(=O)[C@H](CCC(=O)O)NC(=O)[C@H](CO)NC(=O)[C@@H](NC(=O)[C@H](C)N)C(C)C)C(=O)N[C@@H](CCC(N)=O)C(=O)N[C@@H](CC(C)C)C(=O)N[C@@H](CCSC)C(=O)N[C@@H](Cc1c[nH]cn1)C(=O)N[C@@H](CC(N)=O)C(=O)N[C@@H](CC(C)C)C(=O)NCC(=O)N[C@@H](CCCCN)C(=O)N[C@@H](Cc1c[nH]cn1)C(=O)N[C@@H](CC(C)C)C(=O)N[C@@H](CC(N)=O)C(=O)N[C@@H](CO)C(=O)N[C@@H](CCSC)C(=O)N[C@@H](CCC(=O)O)C(=O)N[C@@H](CCCN=C(N)N)C(=O)N[C@H](C(=O)N[C@@H](CCC(=O)O)C(=O)N[C@@H](Cc1c[nH]c2ccccc12)C(=O)N[C@@H](CC(C)C)C(=O)N[C@@H](CCCN=C(N)N)C(=O)N[C@@H](CCCCN)C(=O)N[C@@H](CCCCN)C(=O)N[C@@H](CC(C)C)C(=O)N[C@@H](CCC(N)=O)C(=O)N[C@@H](CC(=O)O)C(=O)N[C@H](C(=O)N[C@@H](Cc1c[nH]cn1)C(=O)N[C@@H](CC(N)=O)C(=O)N[C@@H](Cc1ccccc1)C(=O)N[C@H](C(=O)N[C@@H](C)C(N)=O)C(C)C)C(C)C)C(C)C` (stereo in doubt; form 1), the concentration for a half-maximal effect (EC50) with UMR106-06 [1] (umr106-06) is 3.3 nM; in the test on SAOS-2 [2] (saos-2), 3 nM; in the test with OK-1 [4] (ok-1), 5.9 nM. Besides, the results for the Intrinsic activity in the test on UMR106-06 [3], with SAOS-2 [5] and in the test with OK-1 [7] were 1, 0.95 and 1, respectively. In the test on OK-1 [6], this compound registered a pKD of 8.4.

Source of the values: ChEMBL document CHEMBL1159136, “Dipeptide mimetics can substitute for the receptor activation domain resulting in highly potent analogues of hPTH(136)” (Bioorg Med Chem Lett, 1996).
